# In patent US9695155B2, “Herbicidal substituted pyrimidinyloxy benzene compounds” (E. I. DU PONT DE NEMOURS AND COMPANY, priority 2013, dated 2017):
# Assays:
# rice = test: Test B flooded paddy test; assay type: in vivo, Oryza sativa; settings: Flood, 250 g ai/ha; 0 to 100 scale where 0 is no effect and 100 is complete control
# Summary of the method: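 Seedlings are raised to two leaves, flooded to a depth of 3 cm and dosed by adding the compound to the floodwater. Water level is kept constant, and plants are scored visually versus controls 13–15 days later (0 = no effect, 100 = complete control).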
# wild oat = test: Test C postemergence; assay type: in vivo, Avena fatua; settings: for Plant response rating, Oat, Wild: scale 0 to 100 (0 no effect, 100 complete control)
# Summary of the method: (§1)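 Seeds are planted in blended loam soil and sand and treated preemergence, while seedlings in a peat moss/vermiculite medium receive postemergence sprays at 2 to 18 cm height. All plants stay in the greenhouse for 13 to 15 days before visual comparison with controls on a 0–100 scale.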
# large (Lg) crabgrass = test: Test C postemergence; assay type: in vivo, Digitaria sanguinalis; settings: for Crabgrass, Large plant response rating / Plant response rating, Crabgrass, Large: scale 0 to 100 (0 no effect, 100 complete control)
# Summary of the method: as §1
# morningglory = test: Test C postemergence; assay type: in vivo, Ipomoea coccinea; settings: for Plant response rating, Morningglory: scale 0 to 100 (0 no effect, 100 complete control)
# Summary of the method: as §1
# barnyardgrass = test: Test A preemergence; assay type: in vivo, Echinochloa crus-galli; settings: for Plant response rating, Barnyardgrass: 125 g ai/ha; for Barnyardgrass plant response rating: 500 g ai/ha
# Summary of the method: (§2)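 Compounds in non-phytotoxic solvent with surfactant applied as soil spray preemergence, or postemergence to plants 2-10 cm at one- to two-leaf stage, in loam/sand. After approximately 10 days in greenhouse, injury rated visually versus untreated controls, 0 (no effect) to 100 (complete control).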
# yellow nutsedge = test: Test C preemergence; assay type: in vivo, Cyperus esculentus; settings: for Nutsedge, Yellow plant response rating: preemergence; for Plant response rating, Nutsedge, Yellow: Preemergence, 31 g ai/ha, scale 0 to 100, 0 no effect, 100 complete control
# Summary of the method: as §1
# oilseed rape = test: Test C postemergence; assay type: in vivo, Brassica napus; settings: for Plant response rating, Oilseed Rape: scale 0 to 100 (0 no effect, 100 complete control)
# Summary of the method: as §1
# pigweed = test: Test A preemergence; assay type: in vivo, Amaranthus retroflexus; settings: for Plant response rating, Pigweed: 125 g ai/ha; for Pigweed plant response rating: 500 g ai/ha
# Summary of the method: as §2
# Italian ryegrass = test: Test C postemergence; assay type: in vivo, Lolium multiflorum; settings: for Plant response rating, Ryegrass, Italian: scale 0 to 100 (0 no effect, 100 complete control)
# Summary of the method: as §1
# giant foxtail = test: Test C preemergence; assay type: in vivo, Setaria faberii; settings: for Foxtail, Giant plant response rating: preemergence; for Plant response rating, Foxtail, Giant: Preemergence, 31 g ai/ha, scale 0 to 100, 0 no effect, 100 complete control
# Summary of the method: as §1
# ragweed = test: Test C postemergence; assay type: in vivo, Ambrosia elatior; settings: for Plant response rating, Ragweed: scale 0 to 100 (0 no effect, 100 complete control)
# Summary of the method: as §1
# lambsquarters = test: Test C postemergence; assay type: in vivo, Chenopodium album; settings: for Plant response rating, Lambsquarters: scale 0 to 100 (0 no effect, 100 complete control)
# Summary of the method: as §1
# [1] = Postemergence, 31 g ai/ha, 13 to 15 days
# [2] = 16 g ai/ha, postemergence, visual rating, 13 to 15 days
# [3] = 0 to 100 scale where 0 is no effect and 100 is complete control
# [4] = 0 to 100 scale, 0 no effect, 100 complete control, approx. 10 days
# [5] = 16 g ai/ha, scale 0 to 100 (0 no effect, 100 complete control)
# [6] = 62 g ai/ha, scale 0 (no effect) to 100 (complete control)
# [7] = 125 g ai/ha, scale 0 (no effect) to 100 (complete control)
# [8] = 16 g ai/ha, postemergence, 0 is no effect, 100 is complete control
# [9] = 125 g ai/ha, postemergence, visual rating
Structure (SMILES),"Plant response rating, Rice (rice)","Plant response rating (0 to 100), Oat, Wild (wild oat; 125 g ai/ha, postemergence)","Plant response rating, Oat, Wild (wild oat; [1])","Plant response rating, Oat, Wild (wild oat; Postemergence, 62 g ai/ha)","Plant response rating, Crabgrass, Large (large (Lg) crabgrass; Postemergence, 62 g ai/ha)","Plant response rating, Morningglory (morningglory; Postemergence, 62 g ai/ha)","Plant response rating, Barnyardgrass (barnyardgrass; [3])","Nutsedge, Yellow plant response rating (yellow nutsedge; [5])","Nutsedge, Yellow plant response rating (yellow nutsedge; [6])","Nutsedge, Yellow plant response rating (yellow nutsedge; [7])","Plant response rating, Nutsedge, Yellow (yellow nutsedge)","Plant response rating, Oilseed Rape (oilseed rape; Postemergence, 62 g ai/ha)","Plant response rating, Pigweed (pigweed; [3])","Plant response rating, Ryegrass, Italian (Italian ryegrass; Postemergence, 62 g ai/ha)","Foxtail, Giant plant response rating (giant foxtail; [5])","Foxtail, Giant plant response rating (giant foxtail; [6])","Foxtail, Giant plant response rating (giant foxtail; [7])","Plant response rating, Foxtail, Giant (giant foxtail)","Plant response rating, Ragweed (ragweed; Postemergence, 62 g ai/ha)","Plant response rating, Lambsquarters (lambsquarters; Postemergence, 62 g ai/ha)",also measured
CCOc1cn(-c2c(Br)cccc2Oc2ncc(Cl)cn2)nn1 [Compound 84],0,15,0,5,5,85,50,0,5,40,0,45,100,0,5,98,100,55,40,55,"Crabgrass, Large plant response rating (large (Lg) crabgrass; [2]): 5; Plant response rating (0 to 100), Crabgrass, Large (large (Lg) crabgrass; 125 g ai/ha, postemergence): 30; Plant response rating, Crabgrass, Large (large (Lg) crabgrass; [1]): 5; Plant response rating (0 to 100), Morningglory (morningglory; 125 g ai/ha, postemergence): 85; Plant response rating, Morningglory (morningglory; [1]): 70; Barnyardgrass plant response rating (barnyardgrass; [4]): 90; Plant response rating (0 to 100), Oilseed Rape (oilseed rape; 125 g ai/ha, postemergence): 60; Plant response rating, Oilseed Rape (oilseed rape; [1]): 20; Pigweed plant response rating (pigweed; [4]): 100; Plant response rating (0 to 100), Ryegrass, Italian (Italian ryegrass; 125 g ai/ha, postemergence): 0; Plant response rating, Ryegrass, Italian (Italian ryegrass; [1]): 0; Plant response rating (0 to 100), Ragweed (ragweed; 125 g ai/ha, postemergence): 80; Plant response rating, Ragweed (ragweed; [1]): 10; Plant response rating (0 to 100), Lambsquarters (lambsquarters; 125 g ai/ha, postemergence): 80; Plant response rating, Lambsquarters (lambsquarters; [1]): 30"
N#Cc1cccc(Oc2ncc(F)cn2)c1-n1cc(I)cn1 [Compound 86],0,10,0,5,5,85,80,0,5,35,0,60,100,5,35,100,100,75,55,65,"Crabgrass, Large plant response rating (large (Lg) crabgrass; [2]): 5; Plant response rating (0 to 100), Crabgrass, Large (large (Lg) crabgrass; 125 g ai/ha, postemergence): 5; Plant response rating, Crabgrass, Large (large (Lg) crabgrass; [1]): 5; Plant response rating (0 to 100), Morningglory (morningglory; 125 g ai/ha, postemergence): 85; Plant response rating, Morningglory (morningglory; [1]): 80; Barnyardgrass plant response rating (barnyardgrass; [4]): 100; Plant response rating (0 to 100), Oilseed Rape (oilseed rape; 125 g ai/ha, postemergence): 45; Plant response rating, Oilseed Rape (oilseed rape; [1]): 40; Pigweed plant response rating (pigweed; [4]): 100; Plant response rating (0 to 100), Ryegrass, Italian (Italian ryegrass; 125 g ai/ha, postemergence): 5; Plant response rating, Ryegrass, Italian (Italian ryegrass; [1]): 0; Plant response rating (0 to 100), Ragweed (ragweed; 125 g ai/ha, postemergence): 85; Plant response rating, Ragweed (ragweed; [1]): 50; Plant response rating (0 to 100), Lambsquarters (lambsquarters; 125 g ai/ha, postemergence): 85; Plant response rating, Lambsquarters (lambsquarters; [1]): 45"
N#Cc1cccc(Oc2ncc(Br)cn2)c1-n1cc(I)cn1 [Compound 88],0,10,5,10,10,85,60,0,5,5,0,55,100,10,5,98,100,65,55,60,"Crabgrass, Large plant response rating (large (Lg) crabgrass; [2]): 5; Plant response rating (0 to 100), Crabgrass, Large (large (Lg) crabgrass; 125 g ai/ha, postemergence): 10; Plant response rating, Crabgrass, Large (large (Lg) crabgrass; [1]): 5; Plant response rating (0 to 100), Morningglory (morningglory; 125 g ai/ha, postemergence): 95; Plant response rating, Morningglory (morningglory; [1]): 90; Barnyardgrass plant response rating (barnyardgrass; [4]): 80; Plant response rating (0 to 100), Oilseed Rape (oilseed rape; 125 g ai/ha, postemergence): 45; Plant response rating, Oilseed Rape (oilseed rape; [1]): 50; Pigweed plant response rating (pigweed; [4]): 100; Plant response rating (0 to 100), Ryegrass, Italian (Italian ryegrass; 125 g ai/ha, postemergence): 0; Plant response rating, Ryegrass, Italian (Italian ryegrass; [1]): 5; Plant response rating (0 to 100), Ragweed (ragweed; 125 g ai/ha, postemergence): 60; Plant response rating, Ragweed (ragweed; [1]): 55; Plant response rating (0 to 100), Lambsquarters (lambsquarters; 125 g ai/ha, postemergence): 75; Plant response rating, Lambsquarters (lambsquarters; [1]): 75"
CCOc1cnn(-c2c(C#N)cccc2Oc2ncc(F)cn2)c1 [Compound 89],20,15,5,5,5,55,60,0,10,70,5,55,90,5,5,100,100,35,60,65,"Crabgrass, Large plant response rating (large (Lg) crabgrass; [2]): 5; Plant response rating (0 to 100), Crabgrass, Large (large (Lg) crabgrass; 125 g ai/ha, postemergence): 5; Plant response rating, Crabgrass, Large (large (Lg) crabgrass; [1]): 5; Plant response rating (0 to 100), Morningglory (morningglory; 125 g ai/ha, postemergence): 85; Plant response rating, Morningglory (morningglory; [1]): 70; Barnyardgrass plant response rating (barnyardgrass; [4]): 90; Plant response rating (0 to 100), Oilseed Rape (oilseed rape; 125 g ai/ha, postemergence): 60; Plant response rating, Oilseed Rape (oilseed rape; [1]): 25; Pigweed plant response rating (pigweed; [4]): 100; Plant response rating (0 to 100), Ryegrass, Italian (Italian ryegrass; 125 g ai/ha, postemergence): 5; Plant response rating, Ryegrass, Italian (Italian ryegrass; [1]): 0; Plant response rating (0 to 100), Ragweed (ragweed; 125 g ai/ha, postemergence): 70; Plant response rating, Ragweed (ragweed; [1]): 40; Plant response rating (0 to 100), Lambsquarters (lambsquarters; 125 g ai/ha, postemergence): 55; Plant response rating, Lambsquarters (lambsquarters; [1]): 30"
Clc1cnc(Oc2cccc(Br)c2-n2cc(Br)nn2)nc1 [Compound 129],0,–,–,15,5,80,70,0,5,25,0,60,100,20,0,100,100,80,40,80,"Plant response rating (0 to 100), Oat, Wild (wild oat; [8]): 0; Plant response rating, Oat, Wild (wild oat; [9]): 10; Plant response rating (0 to 100), Crabgrass, Large (large (Lg) crabgrass; [8]): 5; Plant response rating, Crabgrass, Large (large (Lg) crabgrass; [9]): 10; Plant response rating (0 to 100), Morningglory (morningglory; [8]): 75; Plant response rating, Morningglory (morningglory; [9]): 85; Barnyardgrass plant response rating (barnyardgrass; [3]): 90; Plant response rating (0 to 100), Oilseed Rape (oilseed rape; [8]): 5; Plant response rating, Oilseed Rape (oilseed rape; [9]): 60; Pigweed plant response rating (pigweed; [3]): 100; Plant response rating (0 to 100), Ryegrass, Italian (Italian ryegrass; [8]): 0; Plant response rating, Ryegrass, Italian (Italian ryegrass; [9]): 5; Plant response rating (0 to 100), Ragweed (ragweed; [8]): 15; Plant response rating, Ragweed (ragweed; [9]): 85; Plant response rating (0 to 100), Lambsquarters (lambsquarters; [8]): 35; Plant response rating, Lambsquarters (lambsquarters; [9]): 85"
